This is an account of results in PubChem BioAssay AID624404 (Broad Institute, 2012).

The structures appear in SMILES notation. Results filed as inconclusive are left out. The source made the active and inactive calls.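 Rule for the calls: active = luciferase signal rise whose fitted curve crosses a set activity limit at or below the top valid tested dose; inconclusive = flat fit with 30 to 70% rise, or poor fit; inactive = signal falling, flat within 30%, or crossing above top dose.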

The assay relates to D54 LucT luciferase reporter counterscreen, luminescence, 24 h. Description: reporter signal increase, D54 LucT cells – cell-based, luminescence, cherry pick, counter-screen for N-linked glycosylation inhibitor project, dose response (AID 624404). (In general: Counterscreens check selectivity or assay interference.)
With `CCOc1ccc2cc(/C=C/C(=O)c3ccco3)c(Cl)nc2c1`, the AC35 is 4.14 µM. In the case of `CC[C@H](C)[C@@H](NC(=O)O[C@@H]1C(=O)c2cc(OC)ccc2O[C@H]1c1ccc(OC)c(Br)c1)C(=O)OC` it was 1.48 µM; in that of `COc1ccc(Nc2nc(N)c(C(=O)c3ccc(OC)cc3)s2)cc1`, 0.148 µM. In the case of `COc1ccc(NC(=O)c2cc(S(=O)(=O)N(C)C)ccc2N2CCCC2)cc1Cl`, the AC35 is > 19.5 µM (inactive). In the case of `O=C(NCCCN1CCOCC1)c1cc(-c2cccs2)on1` it was 3.63 µM; in that of `C[C@@H](NC(=O)c1nc[nH]c1C(=O)N1CCN(c2ccccc2)CC1)c1ccccc1`, 1.83 µM; in that of `CC(C)c1ccc(/C=N/NC(=O)c2ccccc2Cl)cc1`, 0.247 µM. In the case of `Cn1c(-c2ccccc2)c(/C=N/NC(=O)c2ccc(O)cc2)c2ccccc21` it was 0.319 µM. Regarding `Cc1ccc2nsnc2c1NC(=O)c1ccc([N+](=O)[O-])o1`, the AC35 is 0.571 µM. As for `CCOc1ccc2c(c1)OC(c1ccc(OC)cc1)(C(F)(F)F)NC2=O` (configuration not stated), the AC35 is 0.748 µM.

With `Cn1nc(-c2ccccc2)c(CSc2ccccc2Cl)c1Cl`, the AC35 was 1.12 µM. The value for `Cc1cccc(N2CCN(C(=O)c3ccc(Cl)c(S(=O)(=O)NCc4ccco4)c3)CC2)c1C` was 0.202 µM; that for `O=C(Nc1ccccc1)N(CCN1CCOCC1)Cc1ccccc1F` was 2.37 µM; that for `CCN(CCCNC(=O)COc1cc(=O)n(CC)c2ccccc12)Cc1ccccc1` was 0.517 µM. For the compound `CCOC(=O)c1[nH]c(C)c(C(=O)Nc2cc(OC)ccc2OC)c1C`, the AC35 is 0.345 µM. In the case of `COc1ccc(CCn2c(=N)c(C(=O)NCC3CCCO3)cc3c(=O)n4cccc(C)c4nc32)cc1OC` (configuration not stated), the AC35 is 0.154 µM. On to `O=C(c1ccccc1-c1ccccc1)N1CCN(c2ccccn2)CC1`, for which the AC35 is 2.04 µM. The value for `COc1ccc(C(=O)c2sc(Nc3ccccc3)nc2N)cc1` was 0.645 µM; that for `COc1ccc(C(=O)/C=C/c2ccccc2)c(O)c1` was 0.404 µM.

As to `O=C1NC(=O)N(Cc2ccccc2)C(=O)/C1=C/C=C/c1ccco1`, the AC35 was 5.28 µM. In the case of `C[C@@]12C(=O)Nc3cc(Cl)ccc3C(=O)N1[C@H]1c3cc(Cl)ccc3OC[C@@H]1[C@@H]2c1ccccc1` it was 1.44 µM; in that of `Cc1cnc2cc(Cl)c(Cl)cc2n1`, 5.41 µM; in that of `Cc1nnc2c3ccccc3c(-c3ccccc3)nn12`, 0.221 µM. The value for `CCC(c1nc2ccccc2c(=O)n1-c1nc2ccccc2s1)N1C(=O)c2ccccc2C1=O` (configuration not stated) was 0.74 µM. In the case of `O=C1N[C@H]2CC=C[C@H]2N(Cc2cccs2)c2ccccc21`, the AC35 is 0.199 µM. In the case of `Cc1ccc(S(=O)(=O)N(C)C[C@H]2Oc3ccc(NC(=O)C4CCCCC4)cc3C(=O)N([C@H](C)CO)C[C@H]2C)cc1`, the AC35 is 0.555 µM. In the case of `COc1ccc(CC(=O)N(Cc2ccccc2)c2ccc(C)cc2)cc1OC` it was 1.04 µM; in that of `Cc1ccc2[nH]c(=O)c3cc(C(=O)NC(C)C)sc3c2c1`, 2.39 µM; in that of `COc1ccc(NC(=O)CSc2nc3ccsc3c(=O)n2Cc2ccccn2)c(OC)c1`, > 19.5 µM (inactive). Take `Cc1ccc2nc(Cl)c(/C=C/C(=O)c3ccco3)cc2c1`: the AC35 was 1.53 µM. For `COc1ccc(CCNC(=O)c2cc(-c3ccco3)on2)cc1OC`, the AC35 is 15 µM. The value for `CN(C)c1ccc(/C=N/NC(=O)c2ccccc2Cl)cc1` was 0.119 µM; that for `COc1ccc2c(c1)OC[C@H]1[C@H]2N2C(=O)c3cc(Cl)ccc3NC(=O)[C@@]2(C)[C@H]1c1ccccc1` was 0.996 µM. In the case of `O=c1cc(-c2ccccc2)[nH]c2ccccc12` it was 2.48 µM; in that of `COc1ccccc1N=CC1=C(O)CC(c2ccccc2)CC1=O` (configuration not stated), 0.173 µM; in that of `COCCNC(=O)c1cc(-c2ccccc2OC)on1`, 3.84 µM. The value for `CC(=O)Nc1ccc(/C=C/C(=O)c2ccc3c(c2)OCCO3)cc1` was 2.88 µM. For `COc1ccc(-c2cc(C(=O)NCC(c3ccccc3)N(C)C)c3ccccc3n2)cc1OC` (configuration not stated), the AC35 is 1.1 µM. As for `Cc1ccc(-c2cc(C(=O)Nc3ccncc3)c3ccccc3n2)cc1`, the AC35 is 4.3 µM.

As for `O=C(c1ccc(Cl)c(S(=O)(=O)N2CCCCC2)c1)N1CCN(Cc2ccccc2)CC1`, the AC35 is 1.92 µM. Consider `COc1ccc(Nc2cc(C)nc(-n3nc(C)cc3C)n2)cc1`, for which the AC35 is 0.15 µM. In the case of `O=c1[nH]c(-c2ccccc2)nc2sc(-c3ccccc3)cc12` it was 0.188 µM; in that of `CCOC(=O)c1c(C)[nH]c(C(=O)N/N=C/c2ccc(OC)c(OC)c2)c1C`, 0.526 µM.

Regarding `COc1ccc(Cl)cc1/C=C/c1ccc2cccc(O)c2n1`, the AC35 is 0.0221 µM. The value for `NC(=O)CC(NC(=O)Cc1ccc(Br)cc1)c1ccc(NC2CCC2)c([N+](=O)[O-])c1` (configuration not stated) was 1.71 µM. Consider `Cn1c(=O)[nH]c(=O)c2c1nc(NN)n2CCOc1ccccc1`, for which the AC35 was 3.09 µM. The value for `Cn1c(=O)n(C)c2cc(NS(=O)(=O)c3ccc(F)cc3)ccc21` was 1.24 µM.

For `COc1cc(-c2nc(-c3ccccc3)c(-c3cccs3)[nH]2)cc(OC)c1OC`, the AC35 was 7.05 µM.

On to `CCN(CC)c1ccc(/C=N/NC(=O)c2cnccn2)cc1`, for which the AC35 was 0.0537 µM. In the case of `COc1cc(NC(=O)c2ccccc2OCc2ccccc2)cc(OC)c1OC` it was 1.08 µM; in that of `O=C1c2cccc3c([N+](=O)[O-])ccc(c23)C(=O)N1CC1CCCO1` (configuration not stated), 0.315 µM; in that of `Cc1noc(C)c1-c1ccc(C(=O)NCCc2ccccc2)c2occc12`, 2.77 µM. On to `CCN(CC)CCNC(=O)c1cc2c(=O)n(C)c3ccccc3c2s1`, for which the AC35 was 3.55 µM. In the case of `Cc1ccc2nc(/C(C#N)=C/c3cn[nH]c3-c3ccc(F)cc3)[nH]c2c1` it was 2.18 µM; in that of `COc1ccc(S(=O)(=O)Nc2ccc3c(c2)n(C)c(=O)n3C)cc1OC`, 0.104 µM; in that of `COc1cc2c(cc1OC)C(c1cccs1)N(C(=O)c1cccnc1)CC2` (configuration not stated), 0.438 µM. In the case of `COc1ccccc1/C=C/C(=O)/C=C/c1ccccc1O` it was 0.266 µM; in that of `CCc1ccc(CNC(=O)Cc2ccc(NC(=O)C3=C(C)OCCS3)cc2)cc1`, 0.32 µM. The value for `O=C(Nc1ncccc1O)c1ccc(C(=O)c2ccccc2)cc1` was 0.773 µM; that for `Cc1ccnc(NC(=O)Nc2ccc3c(c2)N(C)C(=O)CS3)c1` was 0.00868 µM.

Take `Cn1c(=O)cc2c3c(c(N4CCCCC4)ccc31)C(=O)c1ccccc1-2`: the AC35 is 1.35 µM. On to `Cc1ccc2c(c1)[C@H]1[C@H](CO2)[C@H](c2ccccc2)[C@]2(C)C(=O)Nc3cc(Cl)ccc3C(=O)N12`, for which the AC35 was 1.06 µM. The value for `C[C@@]12C(=O)Nc3ccc(Br)cc3C(=O)N1[C@H]1c3ccccc3OC[C@@H]1[C@@H]2c1ccccc1` was 0.785 µM; that for `Cn1cc(C(=O)N/N=C/C(Br)=C/c2ccccc2)ccc1=O` was 3.76 µM; that for `Cc1ccc(S(=O)(=O)c2cc3c(=O)n4ccccc4nc3n(CCc3ccccc3)c2=N)cc1` was 0.0759 µM. For the compound `COc1cccc(C(=O)Nc2ncc3c(n2)CC(c2ccc(OC)cc2OC)CC3=O)c1` (configuration not stated), the AC35 was 7.61 µM. The value for `COc1cc(Nc2nc3c(N)cc(C(F)(F)F)cc3nc2-c2ccccc2)cc(OC)c1OC` was 3.87 µM; that for `O=S(=O)([N-]c1nc2ccccc2nc1-n1cc[n+](Cc2ccccc2)c1)c1ccccc1` was 0.648 µM. The value for `Cc1ccc(S/C=C\C(=O)c2ccccc2)cc1` was 0.135 µM; that for `CCOc1ccc(/C=C/C(=O)c2ccccc2)cc1OC` was 1.26 µM. The value for `NS(=O)(=O)c1ccc(NC(=O)c2cccc3cc4ccccc4nc23)cc1` was 6.58 µM. As for `Cc1ccnc(NC(=O)CCCOc2cc(=O)n(C)c3ccccc23)c1`, the AC35 was 3.22 µM. In the case of `COc1cc(-c2[nH]ncc2CN2CCSCC2)cc(OC)c1OC`, the AC35 was 3.5 µM. In the case of `COc1ccc(NC2=C(C)C(=O)CC2)cc1` it was 0.38 µM. For the compound `CCc1ccc(C(=O)Nc2ccc3c(c2)n(C)c(=O)n3C)cc1`, the AC35 was 2.63 µM. Consider `COc1cccc(OCc2nc3ncc(Br)cc3[nH]2)c1`, for which the AC35 is 2.48 µM. In the case of `CC(C)n1c(/C=C/[C@H](O)C[C@H](O)CC(=O)O)c(-c2ccc(F)cc2)c2ccccc21` it was 0.37 µM.

Regarding `Nc1nc(Nc2ccccc2)sc1C(=O)c1ccccc1`, the AC35 is 0.272 µM. The value for `CC(C)(C)c1ccc(C(=O)NNC(=O)c2cccc(Br)c2)cc1` was 5.04 µM.

`COc1cc(F)ccc1-c1csc(C(NC(C)=O)c2ccccc2)n1` (configuration not stated): the AC35 is 0.243 µM.

With `COc1ccc(OC)c(-c2cc(-c3cccnc3)nc(N)c2C#N)c1`, the AC35 was 0.227 µM. As for `Cc1cnc(C(=O)Nc2ccc(OC(F)(F)F)cc2)cn1`, the AC35 is 3.18 µM. Consider `Cc1ccc2nc(-c3ccccc3)cc(C(=O)N3CC(C)OC(C)C3)c2c1` (configuration not stated), for which the AC35 was 1.92 µM. In the case of `Cc1nc(N=C(N)N)nc2c(C)cccc12` it was 3.82 µM. Turning to `c1ccc(CNc2nc(-c3ccccc3)nc3ccccc23)cc1`, the AC35 was 3.01 µM. The value for `COc1cc(C(=O)Nc2ccc3c(c2)nc(C)n3C)cc(OC)c1OC` was 1.13 µM; that for `COc1ccc2c(c1)[C@H]1[C@H](CO2)[C@H](c2ccccc2)[C@]2(C)C(=O)Nc3ccccc3C(=O)N12` was 0.353 µM. The value for `COc1ccc(N/C=C/C(=O)c2cc(OC)c(OC)c(OC)c2)cc1` was 0.263 µM; that for `COc1cc2c(cc1OC)CN(c1ccc(-c3ccccc3OC)nn1)CC2` was 7.87 µM. For the compound `CCN(c1ccccc1)S(=O)(=O)c1ccc(N)c(OC)c1`, the AC35 was 1.82 µM. The value for `Cc1cc(NCCCn2ccnc2)n2nc(C)c(-c3ccccc3)c2n1` was 2.29 µM. As for `O=C(O)c1ccc(CN2C(=O)c3cccc4c([N+](=O)[O-])ccc(c34)C2=O)cc1`, the AC35 is 1.14 µM.

Turning to `Cc1cccc(C(=O)Oc2ccccc2/C=N/NC(=O)c2ccc(NC(=O)C(C)(C)C)cc2)c1`, the AC35 is 2.69 µM.

On to `COc1ccc(C2=NOC(C(=O)NCc3ccco3)C2)cc1` (configuration not stated), for which the AC35 is 0.784 µM. In the case of `COc1ccc(-c2cc(C(F)F)n3ncc(C(=O)n4ccnc4C)c3n2)cc1` it was 2.77 µM; in that of `CC(=O)Nc1ccc(Nc2ccc3c4c(cc(=O)n3C)-c3ccccc3C(=O)c24)cc1`, 0.345 µM; in that of `CCOC(=O)c1c(C)c(C(=O)Nc2cc(F)ccc2F)c(C)n1C`, 3.02 µM.
